From article doi:10.64898/2025.12.27.696692v1, “A coelenterazine-dependent luciferase from the deep-sea coral Anthoptilum murrayi Kölliker, 1880 (Cnidaria: Octocorallia: Pennatulacea)” (biorxiv, 2025) come the findings set out here.

This assay has as its system T1, AnmLuc (recombinant Anthoptilum murrayi luciferase).
T1 construct: codon-optimised, pET-28a(+), N-terminal His6 (no cleavage told); E. coli ArcticExpress (DE3), Ni-NTA
In words: luminometry, Michaelis-Menten nonlinear fit. It counts as biochemical. Particulars: 50 mM sodium phosphate pH 7.5, 25 °C; coelenterazine 0.04–50 µM.

As a reminder, the Km is the substrate concentration at which the rate is half of its maximum. `Oc1ccc(Cc2nc3c(Cc4ccccc4)nc(-c4ccc(O)cc4)cn3c2O)cc1` [coelenterazine]: the Km is 3.39 µM.
